{"source": "ChEMBL document CHEMBL1158055", "about": "“Grandisines C-G, indolizidine alkaloids from the Australian rainforest tree Elaeocarpus grandis” (J Nat Prod, 2006)", "target": "Delta-type opioid receptor (Homo sapiens, UniProt P41143)", "sequence (P41143 whole entry)": "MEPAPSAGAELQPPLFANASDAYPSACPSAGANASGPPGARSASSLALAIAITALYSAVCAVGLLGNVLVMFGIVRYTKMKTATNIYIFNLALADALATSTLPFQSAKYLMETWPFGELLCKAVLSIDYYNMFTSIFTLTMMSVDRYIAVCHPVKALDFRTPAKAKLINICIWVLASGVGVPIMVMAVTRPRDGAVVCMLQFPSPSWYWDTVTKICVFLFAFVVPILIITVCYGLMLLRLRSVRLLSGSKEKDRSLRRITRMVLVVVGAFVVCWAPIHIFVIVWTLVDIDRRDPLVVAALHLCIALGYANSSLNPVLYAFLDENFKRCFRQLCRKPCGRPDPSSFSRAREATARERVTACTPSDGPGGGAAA", "assay": "Displacement of [125I]deltorphin 2 from human recombinant delta opioid receptor expressed in HEK293 cells", "format": "cell-based"}
{"smiles": "C[C@H]1CC=CC2=C1C(=O)[C@@H]1[C@@H](CCN3CCC[C@@H]13)O2", "values": [{"measurement": "IC50", "value": 9.9, "unit": "µM"}]}
{"smiles": "C[C@H]1C[C@H](O)CC2=C1C(=O)[C@@H]1[C@@H](CCN3CCC[C@@H]13)O2", "note": "[GRANDISINE C]", "values": [{"measurement": "IC50", "value": 14.6, "unit": "µM"}]}
{"smiles": "C[C@H]1CC=CC(=O)[C@@H]1C(=O)C1=CCCN2CCC[C@@H]12", "note": "[GRANDISINE D]", "values": [{"measurement": "IC50", "value": 1.65, "unit": "µM"}]}
{"smiles": "C[C@H]1C[C@H](N)CC2=C1C(=O)[C@@H]1[C@@H](CCN3CCC[C@@H]13)O2", "note": "[GRANDISINE F]", "values": [{"measurement": "IC50", "value": 1.55, "unit": "µM"}]}
{"smiles": "COC(=O)C[C@@H]1C[C@H](C)CC(C2=CCCN3CCCC23)=N1", "note": "(stereo not given in full) [GRANDISINE G]", "values": [{"measurement": "IC50", "value": 75.4, "unit": "µM"}]}
